Measured values taken from ChEMBL document CHEMBL1128046, “Inhibitors of acyl-coa:cholesterol acyltransferase (ACAT). 15. sulfonylurea inhibitors with excellent hypocholesterolemic activity in vivo” (Bioorg Med Chem Lett, 1995).
The source made the active and inactive calls. The calls are words filed in the database; no cut-off is given here.

Key:
Rattus norvegicus [1] = assay: Hypocholesterolemic activity expressed as percent change in total cholesterol in acute cholesterol fed rats (APCC) at dose 30 mg/kg; assay type: functional
Rattus norvegicus [2] = assay: Hypocholesterolemic activity expressed as percent change in total cholesterol in acute cholesterol fed rats (APCC) at dose 3 mg/kg; assay type: functional
[3] = biological target: T1, Sterol O-acyltransferase 1 (Rattus norvegicus, UniProt O70536); assay: Inhibition of Acyl-CoA: Cholesterol Acyltransferase (ACAT) in liver microsomes of cholesterol fed rats; set-up: species or system Microsome
T1 sequence (O70536 whole entry): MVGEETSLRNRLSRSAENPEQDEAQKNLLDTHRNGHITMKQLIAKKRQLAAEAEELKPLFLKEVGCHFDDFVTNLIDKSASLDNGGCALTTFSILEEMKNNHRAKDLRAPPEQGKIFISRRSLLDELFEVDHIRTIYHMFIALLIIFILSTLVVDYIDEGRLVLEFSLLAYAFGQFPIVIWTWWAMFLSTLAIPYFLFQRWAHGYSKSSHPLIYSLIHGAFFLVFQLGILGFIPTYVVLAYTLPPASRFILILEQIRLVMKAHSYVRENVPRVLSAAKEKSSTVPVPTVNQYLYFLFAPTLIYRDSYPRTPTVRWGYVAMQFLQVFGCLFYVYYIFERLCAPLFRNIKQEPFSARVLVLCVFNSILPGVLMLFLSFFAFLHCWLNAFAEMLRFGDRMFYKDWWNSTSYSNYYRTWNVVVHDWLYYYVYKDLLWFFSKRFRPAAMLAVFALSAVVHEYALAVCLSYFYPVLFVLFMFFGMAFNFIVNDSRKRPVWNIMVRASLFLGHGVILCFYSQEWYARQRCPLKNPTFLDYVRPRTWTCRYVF

Rattus norvegicus [4] = assay: Hypocholesterolemic activity expressed as percent change in total cholesterol in chronic cholesterol fed rats (CPCC) at dose 30 mg/kg; assay type: functional
[5] = biological target: T2, Acyl-CoA:cholesterol acyltransferase (Oryctolagus cuniculus) (UniProt Q95214); assay: (§1) Compound at 5 uM concentration was tested in vitro for inhibition of Acyl-CoA: Cholesterol Acyltransferase (ACAT) in intestinal microsomes of cholesterol fed rabbits; conditions: Intestine
T2 sequence (whole entry): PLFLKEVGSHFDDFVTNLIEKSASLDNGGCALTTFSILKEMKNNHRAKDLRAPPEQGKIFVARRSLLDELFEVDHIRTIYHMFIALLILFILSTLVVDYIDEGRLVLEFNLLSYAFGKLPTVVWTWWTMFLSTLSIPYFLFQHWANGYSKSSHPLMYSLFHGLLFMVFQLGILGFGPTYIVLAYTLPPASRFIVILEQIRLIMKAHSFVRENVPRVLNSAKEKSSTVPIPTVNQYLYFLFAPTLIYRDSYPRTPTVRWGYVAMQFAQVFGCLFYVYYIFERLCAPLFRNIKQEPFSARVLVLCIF

Rattus norvegicus [6] = assay: Hypocholesterolemic activity expressed as percent change in total cholesterol in chronic cholesterol fed rats (CPCC) at dose 3 mg/kg; NC means no change; assay type: functional, organism-based; set-up: dose 3 mg/kg
Rattus norvegicus [7] = assay: Hypocholesterolemic activity expressed as percent change in total cholesterol in chronic cholesterol fed rats (CPCC) at dose 3 mg/kg; assay type: functional
O-acyltransferase [8] = biological target: T3, O-acyltransferase (Oryctolagus cuniculus, UniProt G1SFD9); assay: Inhibition of Acyl-CoA: Cholesterol Acyltransferase (ACAT) in intestinal microsomes of cholesterol fed rabbits; set-up: species or system Intestine
O-acyltransferase [9] = biological target: T3, O-acyltransferase; assay: as §1; set-up: species or system Intestine
[10] = biological target: T1, Sterol O-acyltransferase 1; assay: (§2) Compound at 5 uM concentration was tested in vitro for inhibition of Acyl-CoA: Cholesterol Acyltransferase (ACAT) in liver microsomes of cholesterol fed rats; set-up: species or system Microsome
Rattus norvegicus [11] = assay: Hypocholesterolemic activity expressed as percent change in total cholesterol in acute cholesterol fed rats (APCC) at dose 30 mg/kg; NC means no change; assay type: functional, organism-based; set-up: dose 30 mg/kg
[12] = biological target: T4, Sterol O-acyltransferase 1 (Rattus norvegicus) (UniProt O70536); assay: as §2; conditions: Microsome
T4 sequence (whole entry): T1 sequence (O70536 whole entry)

[13] = biological target: T4, Sterol O-acyltransferase 1 (Rattus norvegicus); assay: Compound at 10 uM concentration was tested in vitro for inhibition of Acyl-CoA: Cholesterol Acyltransferase (ACAT) in liver microsomes of cholesterol fed rats; conditions: Microsome

T3 sequence (G1SFD9 1-524): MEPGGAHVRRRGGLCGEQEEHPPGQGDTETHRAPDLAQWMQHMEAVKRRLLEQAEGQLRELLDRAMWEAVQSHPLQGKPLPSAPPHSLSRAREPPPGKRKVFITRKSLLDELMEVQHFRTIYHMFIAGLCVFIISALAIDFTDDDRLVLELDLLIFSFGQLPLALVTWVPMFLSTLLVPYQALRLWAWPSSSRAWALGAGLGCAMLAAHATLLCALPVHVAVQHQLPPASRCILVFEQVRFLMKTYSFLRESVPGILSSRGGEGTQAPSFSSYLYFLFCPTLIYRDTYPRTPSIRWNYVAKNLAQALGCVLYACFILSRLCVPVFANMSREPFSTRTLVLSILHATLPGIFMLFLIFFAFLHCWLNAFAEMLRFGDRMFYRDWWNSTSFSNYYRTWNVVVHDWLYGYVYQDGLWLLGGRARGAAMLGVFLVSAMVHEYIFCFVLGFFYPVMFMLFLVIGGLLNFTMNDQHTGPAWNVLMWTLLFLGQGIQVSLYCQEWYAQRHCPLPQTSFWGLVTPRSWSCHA

Row | IC50 [3] | IC50 (O-acyltransferase [8]) | Structure (SMILES) | Change (Rattus norvegicus [1]) | Change (Rattus norvegicus [2]) | Change (Rattus norvegicus [4]) | Change (Rattus norvegicus [7]) | further results
1 | 1390 nM | – | CCCCCCCCCCCCCCCCC(C)S(=O)(=O)NC(=O)Nc1c(C(C)C)cccc1C(C)C (stereo not given) | -76% | -58% | -36% | – | –
2 | 22600 nM | – | CCCCCCCCS(=O)(=O)NC(=O)Nc1c(C(C)C)cccc1C(C)C | -74% | -31% | -59% | – | inhibition [5]: 24%
3 | 2300 nM | – | CCCCCCCCCCCCCC(c1ccccc1)S(=O)(=O)NC(=O)Nc1c(C(C)C)cccc1C(C)C (stereo not given) | -72% | -69% | -62% | – | Change (Rattus norvegicus [6]): inactive
4 | 830 nM | – | CCCCCCCCCCCCCC(C)S(=O)(=O)NC(=O)Nc1c(C(C)C)cccc1C(C)C (stereo not given) | -76% | -61% | -61% | -26% | –
5 | 8830 nM | – | CCCCCCCCCCCCCCS(=O)(=O)N(C)C(=O)Nc1c(C(C)C)cccc1C(C)C | -48% | -20% | – | – | inhibition [5]: 34%
6 | 3300 nM | 2330 nM | CCCCCCCCCCCCS(=O)(=O)NC(=O)Nc1c(C(C)C)cccc1C(C)C | -63% | -59% | -53% | -35% | –
7 | 1270 nM | 1350 nM | CCCCCCCCCCCCCCCCS(=O)(=O)NC(=O)Nc1c(C(C)C)cccc1C(C)C | -64% | -58% | -10% | – | –
8 | 675 nM | 86 nM | CCCCCCCCCCCCS(=O)(=O)N(C)C(=O)Nc1c(C(C)C)cccc1C(C)C | -49% | -18% | – | – | –
9 | 13600 nM | 11100 nM | CCCCCCCCCCS(=O)(=O)NC(=O)Nc1c(C(C)C)cccc1C(C)C | -52% | -40% | -47% | – | –
10 | 940 nM | – | CCCCCCCCCCCCCCS(=O)(=O)NC(=O)Nc1c(C(C)C)cccc1C(C)C | -56% | -60% | -58% | -46% | –
11 | 8100 nM | – | CCCCCCCCCCCCCC(C)(C)S(=O)(=O)NC(=O)Nc1c(OC)cc(OC)cc1OC | -76% | -18% | – | -13% | –
12 | 9200 nM | – | CCCCCCCCC(c1ccccc1)S(=O)(=O)NC(=O)Nc1c(C(C)C)cccc1C(C)C (stereo not given) | -75% | -62% | -74% | -48% | IC50 (O-acyltransferase [9]): 1100 nM
13 | – | 520 nM | CCCCCCCCCCCCCCS(=O)(=O)N(Cc1ccccc1)C(=O)Nc1c(C(C)C)cccc1C(C)C | – | – | – | – | IC50 [10]: 38000 nM; Change (Rattus norvegicus [11]): inactive
14 | – | – | CCCCCCCCCCCCCCS(=O)(=O)NC(=O)Nc1c(OC)cc(OC)cc1OC | -47% | -31% | – | – | inhibition [12]: 40%
15 | 1300 nM | – | CCCCCCCCC(C)S(=O)(=O)NC(=O)Nc1c(C(C)C)cccc1C(C)C (stereo not given) | -69% | -32% | -58% | -46% | –
16 | 2000 nM | 1200 nM | CCCCCCCCCCCCCS(=O)(=O)NC(=O)Nc1c(C(C)C)cccc1C(C)C | -62% | -42% | -69% | – | –
17 | 85 nM | – | CCCCCCCCCCCCCCCCC(C)S(=O)(=O)NC(=O)Nc1c(OC)cc(OC)cc1OC (stereo not given) | -53% | -12% | -18% | – | –
18 | – | – | CC(C)c1cccc(C(C)C)c1OC(=O)[N-]S(=O)(=O)Oc1c(C(C)C)cccc1C(C)C.[Na+] | -74% | -59% | -64% | -64% | –
19 | – | – | CCCCCCCCCCCCCCS(=O)(=O)NC(=O)Nc1ccc(F)cc1F | – | -14% | – | – | inhibition [5]: 49%; inhibition [13]: 0%
20 | 682 nM | – | CCCCCCCCCCCCCC(C)(C)S(=O)(=O)NC(=O)Nc1c(C(C)C)cccc1C(C)C | -52% | -55% | -59% | -26% | –
